Kd and Activity data for three compounds are collected here from ChEMBL document CHEMBL1275397, “Effects on molecular conformation and anticoagulant activities of 1,6-anhydrosugars at the reducing terminal of antithrombin-binding octasaccharides isolated from low-molecular-weight heparin enoxaparin” (J Med Chem, 2010).

The nature of experiment [1]: Binding affinity to human antithrombin in HEPES buffer containing 0.1 M sodium chloride assessed as increase of serpin intrinsic fluorescence by fluorospectrophotometric analysis.
The nature of experiment [2]: Binding affinity to human antithrombin in HEPES buffer containing 0.50 M sodium chloride assessed as increase of serpin intrinsic fluorescence by fluorospectrophotometric analysis.
Experiment [3] is described as follows: Binding affinity to human antithrombin in HEPES buffer containing 0.25 M sodium chloride assessed as increase of serpin intrinsic fluorescence by fluorospectrophotometric analysis.
For experiment [4], the target named is Coagulation factor X (Homo sapiens) (UniProt P00742). The experiment in a line: Inhibition of factor 10a in aqueous buffer solutions assessed as specific activity of enzyme.
The target is the same in experiment [5]. Put plainly: Inhibition of factor 10a in human plasma assessed as specific activity of enzyme. It counts as cell-free.

Sequence of Coagulation factor X (Homo sapiens) (P00742 41-179 limits assumed): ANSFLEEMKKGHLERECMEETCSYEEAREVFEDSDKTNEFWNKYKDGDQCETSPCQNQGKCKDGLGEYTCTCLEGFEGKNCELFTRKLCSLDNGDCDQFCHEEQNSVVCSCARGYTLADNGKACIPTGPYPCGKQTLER
Sequence of Coagulation factor X (Homo sapiens) (P00742 235-488 limits assumed): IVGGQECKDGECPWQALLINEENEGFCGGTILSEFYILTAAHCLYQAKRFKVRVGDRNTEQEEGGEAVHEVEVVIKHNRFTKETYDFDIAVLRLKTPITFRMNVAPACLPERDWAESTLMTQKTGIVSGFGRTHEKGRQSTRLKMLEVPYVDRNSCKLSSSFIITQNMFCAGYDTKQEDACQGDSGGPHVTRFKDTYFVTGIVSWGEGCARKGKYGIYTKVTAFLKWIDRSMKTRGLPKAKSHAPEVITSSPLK

On to `CC(=O)N[C@H]1[C@@H](O[C@H]2[C@H](O)[C@@H](O)[C@H](O[C@H]3[C@H](OS(=O)(=O)O)[C@@H](NS(=O)(=O)O)[C@@H](O[C@H]4[C@H](O)[C@@H](OS(=O)(=O)O)[C@H](O[C@H]5[C@H](O)[C@@H](NS(=O)(=O)O)[C@@H](O)O[C@@H]5COS(=O)(=O)O)O[C@H]4C(=O)O)O[C@@H]3COS(=O)(=O)O)O[C@@H]2C(=O)O)O[C@H](COS(=O)(=O)O)[C@@H](O[C@@H]2O[C@@H](C(=O)O)[C@@H](O[C@H]3O[C@H](COS(=O)(=O)O)[C@@H](O[C@@H]4OC(C(=O)O)=C[C@H](O)[C@H]4OS(=O)(=O)O)[C@H](O)[C@H]3NS(=O)(=O)O)[C@H](O)[C@H]2O)[C@@H]1O`, for which the Kd is 120 nM in experiment [1] and 2740 nM in experiment [2].

As for `CC(=O)N[C@H]1[C@@H](O[C@H]2[C@H](O)[C@@H](O)[C@H](O[C@H]3[C@H](OS(=O)(=O)O)[C@@H](NS(=O)(=O)O)[C@@H](O[C@H]4[C@H](O)[C@@H](OS(=O)(=O)O)[C@H](O[C@H]5[C@H](O)[C@@H](NS(=O)(=O)O)[C@H]6OC[C@H]5O6)O[C@H]4C(=O)O)O[C@@H]3COS(=O)(=O)O)O[C@@H]2C(=O)O)O[C@H](COS(=O)(=O)O)[C@@H](O[C@@H]2O[C@@H](C(=O)O)[C@@H](O[C@H]3O[C@H](COS(=O)(=O)O)[C@@H](O[C@@H]4OC(C(=O)O)=C[C@H](O)[C@H]4OS(=O)(=O)O)[C@H](O)[C@H]3NS(=O)(=O)O)[C@H](O)[C@H]2O)[C@@H]1O`, the Kd is 1230 nM in experiment [1] and more than 10000 nM in experiment [3]. Also, the Activity was found to be 39.6 U/mg in experiment [4] and 39.3 U/mg in experiment [5].

`CC(=O)N[C@H]1[C@@H](O[C@H]2[C@H](O)[C@@H](O)[C@H](O[C@H]3[C@H](OS(=O)(=O)O)[C@@H](NS(=O)(=O)O)[C@@H](O[C@H]4[C@H](O)[C@@H](OS(=O)(=O)O)[C@H](O[C@H]5[C@H](O)[C@H](NS(=O)(=O)O)[C@H]6OC[C@H]5O6)O[C@H]4C(=O)O)O[C@@H]3COS(=O)(=O)O)O[C@@H]2C(=O)O)O[C@H](COS(=O)(=O)O)[C@@H](O[C@@H]2O[C@@H](C(=O)O)[C@@H](O[C@H]3O[C@H](COS(=O)(=O)O)[C@@H](O[C@@H]4OC(C(=O)O)=C[C@H](O)[C@H]4OS(=O)(=O)O)[C@H](O)[C@H]3NS(=O)(=O)O)[C@H](O)[C@H]2O)[C@@H]1O`: the dissociation constant Kd was 900 nM in experiment [1] and more than 10000 nM in experiment [3]. Moreover, the Activity is 51.4 U/mg in experiment [4] and 49.6 U/mg in experiment [5].
